# Reference: PMC9958325 (Nature Communications, 2023)
# Where “and” joins values, the source holds several entries; their conditions need not be identical. Identical values can stand only once.
# Assays:
# [1] = test system: HeLa-ACE2-TMPRSS2 cells; experiment: Intracellular concentrations of compounds (LC/MS), HeLa-ACE2-TMPRSS2 cells; settings: for Intracellular amount, avg / Intracellular amount, individual: 6 h; for intracellular compound, /1x10^6: calculated value per cell count; for intracellular compound, calculated value /20uL: from AUC against pmol standard curve
# [2] = Pharmacokinetic study in PXB-mice (human liver-chimeric)
# [3] = Hela ACE2 TMPRSS2, drug 10, duplicates
# [4] = Hela ACE2 TMPRSS2, drug 50, duplicates
# [5] = Hela ACE2 TMPRSS2, drug 100, duplicates
smiles,measurement,setting,value
"CC(C)(C)[C@H](NC(=O)C(F)(F)F)C(=O)N1C[C@H]2[C@@H]([C@H]1C(=O)N[C@H](C#N)C[C@@H]1CCNC1=O)C2(C)C [Nirmatrelvir, reference compound]","Intracellular amount, avg","[1]; Hela ACE2 TMPRSS2, 10uM",0.5065 pmol(total)
same,"Intracellular amount, individual","[1]; Hela ACE2 TMPRSS2, 10uM",0.5088 pmol(total) and 0.5041 pmol(total)
same,"Intracellular amount, avg","[1]; Hela ACE2 TMPRSS2, 50uM",1.799 pmol(total)
same,"Intracellular amount, individual","[1]; Hela ACE2 TMPRSS2, 50uM",1.518 pmol(total) and 2.08 pmol(total)
same,"Intracellular amount, avg","[1]; Hela ACE2 TMPRSS2, 100uM",3.821 pmol(total)
same,"Intracellular amount, individual","[1]; Hela ACE2 TMPRSS2, 100uM",3.049 pmol(total) and 4.592 pmol(total)
same,"intracellular compound, pmol(total)",[1]; [3],0.5088 pmol and 0.5041 pmol
same,"intracellular compound, /1x10^6",[1]; [3],0.2035 /1x10^6 and 0.2016 /1x10^6
same,"intracellular compound, calculated value /20uL",[1]; [3],0.53 /20uL and 0.52 /20uL
same,"intracellular compound, pmol(total)",[1]; [4],1.518 pmol and 2.08 pmol
same,"intracellular compound, /1x10^6",[1]; [4],0.6073 /1x10^6 and 0.832 /1x10^6
same,"intracellular compound, calculated value /20uL",[1]; [4],1.70 /20uL and 1.83 /20uL
same,"intracellular compound, pmol(total)",[1]; [5],3.049 pmol and 4.592 pmol
same,"intracellular compound, /1x10^6",[1]; [5],1.22 /1x10^6 and 1.837 /1x10^6
same,"intracellular compound, calculated value /20uL",[1]; [5],3.90 /20uL and 4.04 /20uL
same,concentration at 10 min,"[2]; PXB (human liver-chimeric), mouse, plasma, po, 10 mg/kg, plasma concentration, 10 min, individual animals (3 per time point), LC/MS/MS",1600 ng/mL
same,concentration at 240 min,"[2]; PXB (human liver-chimeric), mouse, plasma, po, 10 mg/kg, plasma concentration, 240 min, individual animals (3 per time point), LC/MS/MS",47.2 ng/mL
same,concentration at 1440 min,"[2]; PXB (human liver-chimeric), mouse, plasma, po, 10 mg/kg, plasma concentration, 1440 min, individual animals (3 per time point), LC/MS/MS",0.63 ng/mL
same,Plasma concentration,"[2]; PXB-mice, i.v. 10 mg/kg, 10 min, individual mice, 10 mg/kg",5525.9 ng/mL and 4420.7 ng/mL
same,Plasma concentration,"[2]; PXB-mice, i.v. 10 mg/kg, 0.17 hr, individual mice, 10 mg/kg",5530 ng/mL and 4420 ng/mL
same,Plasma concentration,"[2]; PXB-mice, i.v. 10 mg/kg, 60 min, individual mice, 10 mg/kg",305.4 ng/mL and 496.6 ng/mL
same,Plasma concentration,"[2]; PXB-mice, i.v. 10 mg/kg, 1 hr, individual mice, 10 mg/kg",310 ng/mL and 500 ng/mL
same,Plasma concentration,"[2]; PXB-mice, i.v. 10 mg/kg, 240 min, individual mice, 10 mg/kg",10 ng/mL and 10.6 ng/mL and 46.3 ng/mL
same,Plasma concentration,"[2]; PXB-mice, i.v. 10 mg/kg, 4 hr, individual mice, 10 mg/kg",0.01 µg/ml (2×) and 0.05 µg/ml
same,Plasma concentration,"[2]; PXB-mice, i.v. 10 mg/kg, 480 min, individual mice, 10 mg/kg",1.3 ng/mL and 2.2 ng/mL
same,Plasma concentration,"[2]; PXB-mice, i.v. 10 mg/kg, 8 hr, individual mice",0 ng/mL
same,Plasma concentration,"[2]; PXB-mice, i.v. 10 mg/kg, 1440 min, individual mice, 10 mg/kg",0.2 ng/ml (2×) and 0.9 ng/ml
same,Plasma concentration,"[2]; PXB-mice, i.v. 10 mg/kg, 24 hr, individual mice",0 ng/mL
same,Plasma concentration,"[2]; PXB-mice, p.o. 10 mg/kg, 10 min, individual mice, 10 mg/kg",889.5 ng/mL and 980.6 ng/mL
same,Plasma concentration,"[2]; PXB-mice, p.o. 10 mg/kg, 0.17 hr, individual mice, 10 mg/kg",890 ng/mL and 980 ng/mL
same,Plasma concentration,"[2]; PXB-mice, p.o. 10 mg/kg, 60 min, individual mice, 10 mg/kg",653.1 ng/mL and 318.8 ng/mL and 407 ng/mL
same,Plasma concentration,"[2]; PXB-mice, p.o. 10 mg/kg, 1 hr, individual mice, 10 mg/kg",650 ng/mL and 320 ng/mL and 410 ng/mL
same,Plasma concentration,"[2]; PXB-mice, p.o. 10 mg/kg, 240 min, individual mice, 10 mg/kg",34.6 ng/mL and 30.7 ng/mL
same,Plasma concentration,"[2]; PXB-mice, p.o. 10 mg/kg, 4 hr, individual mice, 10 mg/kg",30 ng/mL
same,Plasma concentration,"[2]; PXB-mice, p.o. 10 mg/kg, 480 min, individual mice, 10 mg/kg",4.4 ng/mL and 7.4 ng/mL and 18.7 ng/mL
same,Plasma concentration,"[2]; PXB-mice, p.o. 10 mg/kg, 8 hr, individual mice, 10 mg/kg",0 ng/mL and 10 ng/mL and 20 ng/mL
same,Plasma concentration,"[2]; PXB-mice, p.o. 10 mg/kg, 1440 min, individual mice, 10 mg/kg",0.6 ng/mL and 0.5 ng/mL
same,Plasma concentration,"[2]; PXB-mice, p.o. 10 mg/kg, 24 hr, individual mice",0 ng/mL
same,Oral F,"[2]; male PXB-mouse 10 mg/kg i.v. and p.o., dose-normalized AUC ratio",56¶ %
same,concentration at 10 min,"[2]; male, PXB (human liver-chimeric), mouse, plasma, iv, 10 mg/kg, Plasma concentration, PXB-mice, i.v. 10 mg/kg, 10 min, individual mice",4250 ng/mL
same,concentration at 0.17 hr,"[2]; male, PXB (human liver-chimeric), mouse, plasma, iv, 10 mg/kg, Plasma concentration, PXB-mice, i.v. 10 mg/kg, 0.17 hr, individual mice",4250 ng/mL
same,concentration at 60 min,"[2]; male, PXB (human liver-chimeric), mouse, plasma, iv, 10 mg/kg, Plasma concentration, PXB-mice, i.v. 10 mg/kg, 60 min, individual mice",344 ng/mL
same,concentration at 1 hr,"[2]; male, PXB (human liver-chimeric), mouse, plasma, iv, 10 mg/kg, Plasma concentration, PXB-mice, i.v. 10 mg/kg, 1 hr, individual mice",340 ng/mL
same,concentration at 480 min,"[2]; male, PXB (human liver-chimeric), mouse, plasma, iv, 10 mg/kg, Plasma concentration, PXB-mice, i.v. 10 mg/kg, 480 min, individual mice",2.2 ng/mL
same,concentration at 8 hr,"[2]; male, PXB (human liver-chimeric), mouse, plasma, iv, 10 mg/kg, Plasma concentration, PXB-mice, i.v. 10 mg/kg, 8 hr, individual mice",0 ng/mL
same,concentration at 24 hr,"[2]; male, PXB (human liver-chimeric), mouse, plasma, iv, 10 mg/kg, Plasma concentration, PXB-mice, i.v. 10 mg/kg, 24 hr, individual mice",0 ng/mL
same,Cmax,"[2]; male, PXB (human liver-chimeric), mouse, plasma, po, 10 mg/kg",1160 ng/mL
same,concentration at 10 min,"[2]; male, PXB (human liver-chimeric), mouse, plasma, po, 10 mg/kg, Plasma concentration, PXB-mice, p.o. 10 mg/kg, 10 min, individual mice",1600 ng/mL
